Literature values as cited in US20220296715A1, “METHOD FOR PREVENTING PRECIPITATION OF INJECTABLE SOLUTION CONTAINING p-BORONOPHENYLALANINE” (Stella Pharma Corporation, priority 2019, published 2022).

Conditions: physiological pH

solubility: very poor solubility
SMILES: N[C@@H](Cc1ccc(B(O)O)cc1)C(=O)O [p-Boronophenylalanine, p-boronophenylalanine]
